Results: PubChem BioAssay (NCI)
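Five concentrations, 48 hours, 96-well plates. GI50: concentration for 50% inhibition of growth. TGI is the concentration that stops growth completely.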

What was measured:
Assay in all cases: NCI-60 cell line screen, 48 h
A549 NSCLC = tested on: A549 NSCLC
COLO 205 colon = tested on: COLO 205 colon
EKVX NSCLC = tested on: EKVX NSCLC
HCC-2998 colon = tested on: HCC-2998 colon
MALME-3M melanoma = tested on: MALME-3M melanoma
SF-268 CNS = tested on: SF-268 CNS
SF-539 CNS = tested on: SF-539 CNS
SW-620 colon = tested on: SW-620 colon
TK-10 renal = tested on: TK-10 renal
BT-549 breast = tested on: BT-549 breast

| SMILES | TGI (A549 NSCLC) [µM] | TGI (COLO 205 colon) [µM] | TGI (EKVX NSCLC) [µM] | TGI (HCC-2998 colon) [µM] | TGI (MALME-3M melanoma) [µM] | TGI (SF-268 CNS) [µM] | TGI (SF-539 CNS) [µM] | TGI (SW-620 colon) [µM] | TGI (TK-10 renal) [µM] | GI50 (A549 NSCLC) [µM] | GI50 (COLO 205 colon) [µM] | GI50 (EKVX NSCLC) [µM] | GI50 (HCC-2998 colon) [µM] | GI50 (MALME-3M melanoma) [µM] | GI50 (SF-268 CNS) [µM] | GI50 (SF-539 CNS) [µM] | GI50 (SW-620 colon) [µM] | GI50 (TK-10 renal) [µM] | GI50 (BT-549 breast) [µM] | TGI (BT-549 breast) [µM] |
| --- | --- | --- | --- | --- | --- | --- | --- | --- | --- | --- | --- | --- | --- | --- | --- | --- | --- | --- | --- | --- |
| NC1=NN(c2ccccc2)C(=O)C1/C(=N\NC(=O)c1cc2ccccc2cc1O)C(=O)Nc1ccc(Cl)cc1 (centres undefined) | > 100 | 49.7 | 62.9 | > 100 | > 100 | 89.3 | 69.3 | > 100 | > 100 |  |  |  |  |  |  |  |  |  |  |  |
| CCOC(=O)Oc1ccc2[nH]c3c(C)cc(N)c(C)c3c2c1 | > 100 | > 100 | > 100 | > 100 | > 100 | > 100 | > 100 | > 100 | > 100 |  |  |  |  |  |  |  |  |  |  |  |
| CC(C)=NO.CC(C)=NO.CC(C)=NO.CC(C)=NO.[Ti] | > 100 | > 100 | > 100 | > 100 | > 100 | > 100 | > 100 | > 100 | > 100 | > 100 | > 100 | > 100 | > 100 | > 100 | > 100 | > 100 | > 100 | > 100 |  |  |
| Nc1ccc2ncc(Nc3ccc(Cl)c(Cl)c3)nc2c1 | > 100 | 32.9 | 88.9 | 32.8 | 55.8 | > 100 | 40.4 | > 100 | > 100 |  |  |  |  |  |  |  |  |  |  |  |
| O=C(Nc1ccccc1)Oc1ccccc1C1CCCCC1 | 88.5 | 30.6 | 85.4 | 81.5 | 57.1 | > 100 | > 100 | 72.5 | > 100 |  |  |  |  |  |  |  |  |  |  |  |
| Cn1nc(-c2ccccc2)c(C(=O)/C=C/c2ccccc2)c(N2CCCC2)c1=O | > 100 | 30 | 53.5 |  |  | 64.2 | 26.3 | 53.7 | 49.3 |  |  |  |  |  |  |  |  |  |  |  |
| CC1=CC(=O)N2[C@H](OC[C@@H]2C(C)C)O1 | > 100 | > 100 |  |  | > 100 | > 100 | > 100 | > 100 | > 100 |  |  |  |  |  |  |  |  |  |  |  |
| CN1OC(CO)CC12C1CC3CC(C1)CC2C3 (centres undefined) | > 100 | > 100 |  | > 100 | > 100 | > 100 | > 100 | > 100 | > 100 |  |  |  |  |  |  |  |  |  |  |  |
| CC(=O)OC1CCC2(C)C(=CCC3C4CC(CN5CC5)C(=O)C4(C)CCC32)C1 (centres undefined) | 42.2 | 12 |  | 30.4 | 5.56 | 28.2 | 26.9 | 13.3 | 3.82 | 15.3 | 3.71 |  | 14 | 2.21 | 13.9 | 13.5 | 3.17 | 1.89 | 10.4 | 22.9 |
| COc1cc(-c2nn(-c3cccc(NC(=O)c4cccc(C(F)(F)F)c4)c3)cc2-c2ccncc2)ccc1Cl | > 50 | 5.17 |  | 17.6 | > 50 | > 50 | 2.3 | > 50 | > 50 | 1.87 | 1.64 |  | 2.24 | 1.89 | 2.13 | 0.895 | 2.31 | 3.24 | 2.87 | 46.8 |
| COc1cccc(OC)c1/C=N\N1C(=O)c2ccccc2C1=O | > 100 |  | > 100 | 91.9 | > 100 | > 100 | 52.4 | > 100 | > 100 |  |  |  |  |  |  |  |  |  |  |  |
| Cc1cc2c(=O)cc(-c3ccncc3)oc2c(C(=O)O)c1C | > 100 | > 100 | > 100 | > 100 | > 100 | > 100 | > 100 | > 100 | > 100 |  |  |  |  |  |  |  |  |  |  |  |
| CC(=O)OCC1OC(OC(C)=O)C(NC#N)C(OC(C)=O)C1OC(C)=O (centres undefined) | > 100 | > 100 |  | > 100 | > 100 | > 100 | > 100 | > 100 | > 100 |  |  |  |  |  |  |  |  |  |  |  |
| CCNC(=O)O/N=C1/C=C2CC[C@@H]3C(CC[C@@]4(C)C3CC[C@@H]4OC(=O)NCC)[C@@]2(C)CC1 (some centres undefined) | 14.2 | 7.87 | 16.2 | 15.2 |  |  | > 100 | 11.4 | 8.8 |  |  |  |  |  |  |  |  |  |  |  |
| COC(=O)N/N=C(\c1nc2ccc(Cl)cc2[nH]c1=O)C(O)c1ccc([N+](=O)[O-])cc1 (centres undefined) | > 100 | > 100 |  | > 100 | > 100 | > 100 | > 100 | > 100 |  |  |  |  |  |  |  |  |  |  |  |  |
| O=c1cccccc1[O-].O=c1cccccc1[O-].O=c1cccccc1[O-].[Dy+3] | > 100 |  | > 100 | > 100 | > 100 | > 100 | 78 | > 100 | > 100 |  |  |  |  |  |  | 17.9 |  |  |  |  |
| CN(C)C(=O)c1cc2cnc(Nc3ccc(N4CCNCC4)cn3)nc2n1C1CCCC1 | 41.6 | 26.5 |  | > 100 | 22.3 | 38.3 | 30.8 | 66 | > 100 | 12 | 1.75 |  | 27.8 | 5.4 | 14.1 | 15.7 | 1.21 | 4.37 |  |  |
| CCc1c[nH]c2ncnc(N3CC[C@](N)(CNC(=O)c4ccc(F)cc4F)C3)c12 | > 95.5 | > 64.8 |  | > 100 | 39.5 | > 100 | 29.4 | > 100 | 50.4 | 7.36 | 8.12 |  | 11.5 | 3.4 | 33.3 | 0.381 | 23.1 | 1.27 | 0.797 | 18.1 |
| O=[N+]([O-])C1(CO)COC(CCc2ccccc2)OC1 (centres undefined) | > 100 |  | > 100 | > 100 | > 100 |  | > 100 | > 100 | > 100 |  |  |  |  |  |  |  |  |  |  |  |
| COC(=O)C1=C(C)C(=O)C2(CCCCCC2C(=O)OC)C1 (centres undefined) | > 100 | > 100 | > 100 | > 100 | > 100 | > 100 | > 100 | > 100 | > 100 |  |  |  |  |  |  |  |  |  |  |  |
| Cc1[nH]n(C(=O)c2ccc(Cl)cc2)c(=O)c1/C=C1\C(O)=CC(=O)c2ccccc21 | > 100 | > 100 | > 100 | > 100 | > 100 | > 100 | > 100 | > 100 | > 100 |  |  |  |  |  |  |  |  |  |  |  |
